Results: patent publication US5068247A, “2-aminopentanoic acid compounds and their use as immunosuppressants” (priority 1989, dated 1991)
Like-named read-outs stand apart in the source and are kept apart here.

What was measured:
K562 = assay: cytotoxicity to cultured tumor cell line K562
Procedure: (§1) Cytotoxicity to various human tumor cell lines was examined as follows:
(§2) Cells of human cell lines, K562, MOLT4, U937 and HL60 were respectively suspended to the concentration of 4×10^5 cells/ml in the RPMI1640 culture medium supplemented with 20% FCS. Fifty μl of each suspension was added to each well of a 96-well microtest plate to which 50 μl of the test solution had been added. After culturing the suspension at 37° C. in an atmosphere of 5% carbon dioxide for 72 hours, the absorbancy at 570 nm was measured in the same way as with the colorimetry using MTT in Experiment Example 1, and the percent suppression was calculated by the following formula, which was used as an index of cytotoxicity.

[1] = cytotoxicity to cultured tumor cell line K562; details: human, k562 cells, Suppression
Procedure: as §1, §2

[2] = system: IL-3 production in mouse allogenic MLC; assay: suppression of IL-3 production in mouse allogenic MLC; type: cell-based
Procedure: Mouse allogenic MLC was carried out as follows:
After termination of culture, the supernatant was collected and used as the supernatant of mouse allogenic MLC.

[3] = system: human allogenic MLR (human peripheral blood lymphocytes); assay: human allogenic MLR-suppressive activity, 3H-thymidine uptake; type: cell-based; details: for inhibition at 0.001 µg/mL: read-out: Suppression, 0.001 μg/ml; for inhibition at 0.01 µg/mL: read-out: Suppression, 0.01 μg/ml; for inhibition at 0.1 µg/mL: read-out: Suppression, 0.1 μg/ml; for inhibition at 1 µg/mL: read-out: Suppression, 1 μg/ml
Procedure: The human allogenic MLR-suppressive activity was assayed as follows:
Human peripheral blood lymphocytes obtained by Ficoll-Paque density gradient centrifugation of normal human peripheral blood were suspended in the RPMI1640 culture medium supplemented with 10% FCS, placed in a plastic dish, and cultured in an atmosphere of 5% carbon dioxide and 95% air at 37° C. for 2 hours. After termination of culture, the supernatant after gentle pipetting was collected and centrifuged (1000 rpm, for 5 minutes) to obtain plastic-nonadherent cells. The plastic-nonadherent cells were allowed to pass through a nylon-wool column to give nylon-nonadherent cells, and the concentration of the cell suspension was adjusted to 4×10^6 cells/ml by using the RPMI1640 culture medium supplemented with 10% FCS, and used as the responder cell suspension.
The plastic-adherent cells were removed from the plastic dish by vigorous pipetting after addition of phosphate buffered saline (PBS) supplemented with 5% FCS and 0.02% disodium ethylenediaminetetraacetic acid (EDTA). The plastic-adherent cells were treated with 40 μg/ml of mitomycin C at 37° C. for 60 minutes, washed three times, and suspended to the concentration of 4×10^6 cells/ml in the RPMI1640 culture medium supplemented with 10% FCS. The resultant suspension was used as the stimulator cell suspension.
After termination of culture, 37 KBq/well of ^3 H-thymidine was added, and after 18 hours of culture, the cells were harvested by a cell-harvester. The radioactivity incorporated into the cells was measured by a liquid scintillation counter, which was used as an index of blastogenic response of lymphocytes in human allogenic MLR. The suppression of human allogenic MLR was evaluated by calculating the percent suppression by the following formula. [formula]

[4] = system: allo-specific cytotoxic antibody in serum of EL4-immunized BALB/c mice; assay: suppression of allo-specific cytotoxic antibody production induced by allogenic cell immunization of mouse; type: in vivo
Procedure: Male 5- to 7-week-old BALB/c mice were immunized with leukemia cell EL4 derived from C57BL/6 mice (10^7 cells/mouse, intraperitoneal administration) in the same way as in Experiment Example 9, and the […] Nine to ten days after immunization, a serum was collected from the mice. Fifty μl of the two-fold serial dilution of the serum, 50 μl of a guinea pig complement and EL4 cell suspension labelled with ^51 Cr as the target cell (5×10^4 cells/ml, 100 μl) were together added to a 96-well microtest plate. After incubation at 37° C. for 1 hour, the amount of ^51 Cr released in the supernatant was measured, and the complement-dependent cytotoxicity was calculated by the following formula. [formula]
The value of allo-specific cytotoxic antibody determined as above was expressed by the titer calculated on the basis of the concentration at which the releasing amount of ^51 Cr was 50% of that of ^51 Cr-labelled target cells treated with 0.1 N HCl.

[5] = system: allo-reactive cytotoxic T cell (EL4 target cells); assay: suppression of induction of allo-reactive cytotoxic T cell in mouse allogenic mixed lymphocyte culture (MLC), 51Cr release; type: cell-based
Procedure: The target cells used were leukemia cells EL4 from the syngenic (H-2^b) C57BL/6 mouse as used for preparation of the stimulator cells. By incubating 10^6 EL4 cells in the presence of 370 KBq of Na2^51 CrO4 at 37° C. for 1 hour, ^51 Cr was incorporated into the cytoplasm. The cells were washed, adjusted to the concentration of 10^4 cells/ml and used as the target cells.
For the assay of the cytotoxic activity, 100 μl of the effector cell suspension and 100 μl of the target cell suspension were added to a 96-well flat-bottomed microculture plate, and cultured at 37° C. for 4 hours. The amount of ^51 Cr released into the supernatant was determined and the cytotoxic activity was calculated by the following formula. [formula]
The activity of the cytotoxic T cell is expressed by LU (lytic unit) per 10^6 effector cells.

[6] = Homo sapiens, Lymphocyte, Donor A/Donor B
[7] = Homo sapiens, Lymphocyte, Donor C/Donor D
[8] = 0.01 mg/kg/day ip × 5, Table 10A
[9] = 0.03 mg/kg/day ip × 5, Table 10A
[10] = 0.1 mg/kg/day ip × 5, Table 10A
[11] = 0.3 mg/kg/day ip × 5, Table 10A
[12] = 0.3 mg/kg/day po × 5, Table 10B

Structure (SMILES): CCCCCCCCCCCCCCCC[C@@H](O)[C@H](O)[C@@](N)(CO)C(=O)O [Example 2]
- Absorbancy (K562; 0.1 μg/ml): 1.128 ± 0.025
- Absorbancy (K562; 1 μg/ml): 1.103 ± 0.045
- Absorbancy (K562; 10 μg/ml): 1.086 ± 0.045
- cytotoxicity at 72 h ([1]; 0.1 μg/ml): 0.7%
- cytotoxicity at 72 h ([1]; 1 μg/ml): 2.9%
- cytotoxicity at 72 h ([1]; 10 μg/ml): 4.4%
- IL-3 activity ([2]; 0.0001 μg/ml): 42.8 U/ml
- IL-3 activity ([2]; 0.001 μg/ml): 45.3 U/ml
- IL-3 activity ([2]; 0.01 μg/ml): 42.2 U/ml
- IL-3 activity ([2]; 0.1 μg/ml): 23.6 U/ml
- IL-3 activity ([2]; 1 μg/ml): 11.0 U/ml
- inhibition at 0.0001 µg/mL ([2]; Mus musculus, 48 h, 0.0001 μg/ml): 16.3%
- inhibition at 0.001 µg/mL ([2]; Mus musculus, 48 h, 0.001 μg/ml): 9.9%
- inhibition at 0.01 µg/mL ([2]; Mus musculus, 48 h, 0.01 μg/ml): 17.9%
- inhibition at 0.1 µg/mL ([2]; Mus musculus, 48 h, 0.1 μg/ml): 65.3%
- inhibition at 1 µg/mL ([2]; Mus musculus, 48 h, 1 μg/ml): 97.4%
- 3H-thymidine uptake ([3]; 0.00001 μg/ml, Donor C/Donor D): 13909 cpm
- 3H-thymidine uptake ([3]; 0.0001 μg/ml, Donor C/Donor D): 15259 cpm
- 3H-thymidine uptake ([3]; 0.001 μg/ml, Donor A/Donor B): 9258 cpm
- 3H-thymidine uptake ([3]; 0.001 μg/ml, Donor C/Donor D): 15503 cpm
- 3H-thymidine uptake ([3]; 0.01 μg/ml, Donor A/Donor B): 8119 cpm
- 3H-thymidine uptake ([3]; 0.01 μg/ml, Donor C/Donor D): 11263 cpm
- 3H-thymidine uptake ([3]; 0.1 μg/ml, Donor A/Donor B): 4624 cpm
- 3H-thymidine uptake ([3]; 0.1 μg/ml, Donor C/Donor D): 7300 cpm
- 3H-thymidine uptake ([3]; 1 μg/ml, Donor A/Donor B): 7130 cpm
- 3H-thymidine uptake ([3]; 1 μg/ml, Donor C/Donor D): 6583 cpm
- suppressive activity in human allogenic MLR (in words) ([3]; 1 to 0.0001 μg/ml): exhibited suppressive activity in human allogenic MLR in a concentration-dependent manner
- inhibition at 10 pg/mL ([3]; Homo sapiens, Lymphocyte, read-out: Suppression, 0.00001 μg/ml, Donor C/Donor D): 31.4%
- inhibition at 0.0001 µg/mL ([3]; Homo sapiens, Lymphocyte, read-out: Suppression, 0.0001 μg/ml, Donor C/Donor D): 24.5%
- inhibition at 0.001 µg/mL [3, 6]: 23.6%
- inhibition at 0.001 µg/mL [3, 7]: 23.2%
- inhibition at 0.01 µg/mL [3, 6]: 33.8%
- inhibition at 0.01 µg/mL [3, 7]: 44.9%
- inhibition at 0.1 µg/mL [3, 6]: 65.2%
- inhibition at 0.1 µg/mL [3, 7]: 65%
- inhibition at 1 µg/mL [3, 6]: 42.7%
- inhibition at 1 µg/mL [3, 7]: 68.7%
- Allogenic cell-specific antibody in serum, suppression [4, 8]: 0%
- Allogenic cell-specific antibody in serum, titer [4, 8]: 119 ± 47
- Allogenic cell-specific antibody in serum, suppression [4, 9]: 0%
- Allogenic cell-specific antibody in serum, titer [4, 9]: 87 ± 55
- Allogenic cell-specific antibody in serum, suppression [4, 10]: 0%
- Allogenic cell-specific antibody in serum, titer [4, 10]: 89 ± 32
- Allogenic cell-specific antibody in serum, suppression [4, 11]: 39.9%
- Allogenic cell-specific antibody in serum, titer [4, 11]: 50 ± 48
- Allogenic cell-specific antibody in serum, suppression [4, 12]: 39.3%
- Allogenic cell-specific antibody in serum, titer [4, 12]: 130 ± 45
- Allogenic cell-specific antibody in serum, suppression ([4]; 1 mg/kg/day ip × 5, Table 10A): > 80%
- Allogenic cell-specific antibody in serum, titer ([4]; 1 mg/kg/day ip × 5, Table 10A): < 16
- Allogenic cell-specific antibody in serum, suppression ([4]; 1 mg/kg/day po × 5, Table 10B): 37.9%
- Allogenic cell-specific antibody in serum, titer ([4]; 1 mg/kg/day po × 5, Table 10B): 133 ± 50
- Allogenic cell-specific antibody in serum, suppression ([4]; 3 mg/kg/day ip × 5, Table 10A): > 80%
- Allogenic cell-specific antibody in serum, titer ([4]; 3 mg/kg/day ip × 5, Table 10A): < 16
- Allogenic cell-specific antibody in serum, suppression ([4]; 3 mg/kg/day po × 5, Table 10B): 58.9%
- Allogenic cell-specific antibody in serum, titer ([4]; 3 mg/kg/day po × 5, Table 10B): 88 ± 47
- Allogenic cell-specific antibody in serum, suppression ([4]; 10 mg/kg/day po × 5, Table 10B): 68.7%
- Allogenic cell-specific antibody in serum, titer ([4]; 10 mg/kg/day po × 5, Table 10B): 67 ± 16
- allo-specific cytotoxic antibody production in serum (in words) ([4]; intraperitoneal or oral, Tables 10A to 10D): strongly suppresses allo-specific cytotoxic antibody production in serum
- Cytotoxic activity ([5]; 0.001 μg/ml, BALB/c responder): 16.0 LU/10^6
- Cytotoxic activity ([5]; 0.01 μg/ml, BALB/c responder): 13.0 LU/10^6
- Cytotoxic activity ([5]; 0.1 μg/ml, BALB/c responder): < 1.0 LU/10^6
- Cytotoxic activity ([5]; 1 μg/ml, BALB/c responder): < 1.0 LU/10^6
- inhibition at 0.001 µg/mL ([5]; Mus musculus, T-cell, 144 h, 0.001 μg/ml, BALB/c responder): 18.4%
- inhibition at 0.01 µg/mL ([5]; Mus musculus, T-cell, 144 h, 0.01 μg/ml, BALB/c responder): 33.6%
- inhibition at 0.1 µg/mL ([5]; Mus musculus, T-cell, 144 h, 0.1 μg/ml, BALB/c responder): > 95%
- inhibition at 1 µg/mL ([5]; Mus musculus, T-cell, 144 h, 1 μg/ml, BALB/c responder): > 95%
- induction of the allo-reactive cytotoxic T cell (in words), BALB/c responder ([5]; Table 3A): markedly inhibited
